# Source: patent US20050282911A1, “Memantine for the prevention or reduction of suicidality and for treatment of major depression associated with suicidality” (priority 2003, published 2005)
# System: patients with major depressive disorder (MDD)
# Assay: Open-label, flexible dose, 12-week study of memantine in major depressive disorder (MEM-MD-09): efficacy
# Assay type: in vivo, human
# Parameters: CGI-I mean score: scale not given here
# Settings: for CGI-I mean score / Mean Change from Baseline in CGI-S / Mean Change from Baseline in HAM-D / Mean Change from Baseline in MADRS: ITT Population; for Mean Change from Baseline in CGI-S: baseline 4.3; for Mean Change from Baseline in HAM-D: baseline 30.0; for Mean Change from Baseline in MADRS: baseline 31.9
# Source text: The present study was a single-center, open-label, flexible dose, 12-week study designed to provide a preliminary assessment of the efficacy and safety of memantine in patients with major depressive disorder (MDD). In order to assess the efficacy of treatment on depressive symptomatology, the primary efficacy assessment was the Montgomery Depression Rating Scale (MADRS). Secondary efficacy assessments included the Hamilton Depression Rating Scale (HAM-D), the Clinical Global Impressions—Severity Scale (CGI-S), the Clinical Global Impressions—Improvement Scale (CGI-I), the Patient Global Evaluation (PGE), and the Quality of Life Scale (QOL).
# Study Design. The study was designed as a single-center, open-label, flexible dose 12-week study. Memantine was to be administered at 20 mg/day (10 mg b.i.d.) (titrated over a 4 week period), and, if warranted, up-titrated to a maximum of 40 mg/day (20 mg b.i.d.) (titrated in increments of 10 mg/day after Week 4).
# Entrance Criteria. Criteria for enrollment were as follows: (i) male or female outpatients between 18 and 80 years of age at screening; (ii) diagnosis of MDD consistent with DSM-IV; (iii) Montgomery Asberg Depression Rating Scale (MADRS) score of 22 or greater; and CGI severity score of 4 or greater. None of the patients had attempted suicide or were diagnosed as being at risk for committing suicide.
# Endpoints. The primary endpoint was improvement according to Montgomery Asberg Depression Rating Scale (MADRS). Secondary endpoints were improvements according to the Hamilton Depression Rating Scale (HAM-D), the Clinical Global Impressions-Severity Scale (CGI-S), the Clinical Global Impressions-Improvement Scale (CGI-I), Patient Global Evaluation (PGE), and Quality of Life Scale (QOL).
# MADRS. MADRS is either self-administered (MADRS-S) or interviewer administered evaluation of symptoms of depression in adults. MADRS evaluates ten areas of depressive symptomatology: apparent sadness, reported sadness, inner tension, reduced sleep, reduced appetite, concentration difficulties, lassitude, inability to feel, pessimistic thoughts, and suicidal thoughts. Each area is rated on a seven-point scale (0-6).
# MADRS was administered to each of the study participants at baseline, and weeks 1, 2, 3, 4, 6, 8, 10 and 12.
# HAM-D. HAM-D criteria were assessed at weeks 1, 2, 4, 8 and 12. HAM-D is a 24-item scale that evaluates depressed mood, vegetative and cognitive symptoms of depression, and comorbid anxiety symptoms. It provides ratings on current DSM-IV symptoms of depression, with the exceptions of hypersomnia, increased appetite, and concentration/indecision. There are several ways of analyzing HAM-D. According to one analysis, the first 17-items are rated on either a 5-point (0-4) or a 3-point (0-2) scale. In general, the 5-point scale items use a rating of 0=absent; 1=doubtful to mild; 2=mild to moderate; 3=moderate to severe; 4=very severe. A rating of 4 is usually reserved for extreme symptoms. The 3-point scale items used a rating of 0=absent; 1=probable or mild; 2=definite. The second analysis uses the same scale to rate the first 21 items, and the third analysis uses the scale to rate all 24 items. All three analyses were used in the present study and used statistically in the results.
# Response to medication (i.e., memantine) was defined as a reduction in the HAM-D 24 score of 50%, while remission was defined as a reduction in the HAM-D total score to 7 or less.
# DSM-IV. DSM-IV diagnostic criteria were determined at week 1 and again at the end of the study. […]
smiles,measurement,setting,value
"CC12CC3CC(C)(C1)CC(N)(C3)C2.Cl [Memantine, 1-amino-3,5-dimethyladamantane hydrochloride]",HAM-D ECDEU combination (cognitive disturbance factor),12 week period,improved
same,shift in severity ranking (CGI-S),"12 week period, with the exception of one patient",improved to “mildly depressed” or to “not depressed”
same,"HAM-D item 8, MADRS item 6 and DSM-IV criterion “h” (concentration, cognitive disturbance)",12 week treatment period,improved
same,"reduction in MADRS and HAM-D (17-, 21-, and 24-question versions) at endpoint","LOCF analyses, endpoint",approximately 18 points
same,CGI-I mean score,"Week 1, LOCF",2.7
same,Mean Change from Baseline in CGI-S,"Week 1, LOCF",−0.5
same,Mean Change from Baseline in HAM-D,"Week 1, LOCF",−6.1
same,Mean Change from Baseline in MADRS,"Week 1, LOCF",−7.9
same,CGI-I mean score,"Week 1, OC",2.7
same,Mean Change from Baseline in CGI-S,"Week 1, OC",−0.7
same,Mean Change from Baseline in HAM-D,"Week 1, OC",−8.2
same,Mean Change from Baseline in MADRS,"Week 1, OC",−10.5
same,CGI-I mean score,"Week 2, LOCF",2.8
same,Mean Change from Baseline in CGI-S,"Week 2, LOCF",−0.6
same,Mean Change from Baseline in HAM-D,"Week 2, LOCF",−11.8
same,Mean Change from Baseline in MADRS,"Week 2, LOCF",−12.1
same,CGI-I mean score,"Week 2, OC",2.8
same,Mean Change from Baseline in CGI-S,"Week 2, OC",−0.6
same,Mean Change from Baseline in HAM-D,"Week 2, OC",−11.8
same,Mean Change from Baseline in MADRS,"Week 2, OC",−12.1
same,CGI-I mean score,"Week 3, LOCF",2.4
same,Mean Change from Baseline in CGI-S,"Week 3, LOCF",−0.9
same,Mean Change from Baseline in MADRS,"Week 3, LOCF",−14.3
same,CGI-I mean score,"Week 3, OC",2.3
same,Mean Change from Baseline in CGI-S,"Week 3, OC",−1.0
same,Mean Change from Baseline in MADRS,"Week 3, OC",−14.7
same,CGI-I mean score,"Week 4, LOCF",2.3
same,Mean Change from Baseline in CGI-S,"Week 4, LOCF",−1.3
same,Mean Change from Baseline in HAM-D,"Week 4, LOCF",−16.8
same,Mean Change from Baseline in MADRS,"Week 4, LOCF",−15.6
same,CGI-I mean score,"Week 4, OC",2.1
same,Mean Change from Baseline in CGI-S,"Week 4, OC",−1.4
same,Mean Change from Baseline in HAM-D,"Week 4, OC",−20.8
same,Mean Change from Baseline in MADRS,"Week 4, OC",−17.0
same,CGI-I mean score,"Week 6, LOCF",2.4
same,Mean Change from Baseline in CGI-S,"Week 6, LOCF",−1.3
same,Mean Change from Baseline in MADRS,"Week 6, LOCF",−15.0
same,CGI-I mean score,"Week 6, OC",2.4
same,Mean Change from Baseline in CGI-S,"Week 6, OC",−1.3
same,Mean Change from Baseline in MADRS,"Week 6, OC",−15.0
same,CGI-I mean score,"Week 8, LOCF",2.0
same,Mean Change from Baseline in CGI-S,"Week 8, LOCF",−1.5
same,Mean Change from Baseline in HAM-D,"Week 8, LOCF",−16.8
same,Mean Change from Baseline in MADRS,"Week 8, LOCF",−18.6
same,CGI-I mean score,"Week 8, OC",1.9
same,Mean Change from Baseline in CGI-S,"Week 8, OC",−1.6
same,Mean Change from Baseline in HAM-D,"Week 8, OC",−19.0
same,Mean Change from Baseline in MADRS,"Week 8, OC",−20.4
same,CGI-I mean score,"Week 10, LOCF",2.1
same,Mean Change from Baseline in CGI-S,"Week 10, LOCF",−1.8
same,Mean Change from Baseline in MADRS,"Week 10, LOCF",−18.5
same,CGI-I mean score,"Week 10, OC",2.3
same,Mean Change from Baseline in CGI-S,"Week 10, OC",−1.6
same,Mean Change from Baseline in MADRS,"Week 10, OC",−16.7
same,CGI-I mean score,"Week 12, LOCF",2.1
same,Mean Change from Baseline in CGI-S,"Week 12, LOCF",−1.5
same,Mean Change from Baseline in HAM-D,"Week 12, LOCF",−17.8
same,Mean Change from Baseline in MADRS,"Week 12, LOCF",−18.5
same,CGI-I mean score,"Week 12, OC",2.3
same,Mean Change from Baseline in CGI-S,"Week 12, OC",−1.3
same,Mean Change from Baseline in HAM-D,"Week 12, OC",−16.0
same,Mean Change from Baseline in MADRS,"Week 12, OC",−16.7
same,overall impression of improvement (CGI-I),after 12 weeks,overall impression of improvement as measured using CGI-I in all patients with the exception of one
same,DSM-IV checklist: degree of symptomology,"all DSM-IV categories, end of study",reduction in the degree of symptomology in all DSM-IV categories
same,improvement on the primary and all secondary efficacy variables,"baseline to Week 12, LOCF and OC approaches",Significant improvement
same,onset of therapeutic benefit in the treatment of MDD,"eight patients with MDD, first assessment",1 week
same,patients considered “Very Much Improved” or “Much Improved” as measured by the CGI-I,end of Week 8,6 of 7
same,"patients responded to treatment, as measured by the MADRS and the HAM-D","end of Week 8, responder defined as 50% improvement from baseline",5 of the 7
same,DSM-IV checklist: categories of appetite and agitation/retardation,end of study,complete remission of symptoms in all patients
same,overall therapeutic response compared to citalopram and escitalopram,"memantine 20-40 mg/day, comparison with prior study SCT-MD-01",larger magnitude and faster onset of overall therapeutic response
same,"appetite items HAM-D 12, MADRS item 5 and DSM-IV item “c”",overall scores versus baseline,decrease from baseline
same,"HAM-D items 1, 2, 3 and 7",specific items chosen for analysis,positive change
same,score of item 3 of HAM-D (suicide),throughout visit 8,steady improvement
same,patients meeting criteria as CGI-I responders,week 12,62.5%
same,mean change from baseline to endpoint on the HAM-D,"week 12, printed without sign",about 17.8
same,mean change from baseline to endpoint on the MADRS,"week 12, printed without sign",about 18.5
same,"HAM-D item combinations for melancholy, anxiety, psychomotor retardation and insomnia",week 12 from baseline,improvement
